Like-named read-outs stand apart in the source and are kept apart here.
Tested on: cell line HS695T
Assay: Cell viability via Trypan blue staining in cell culture experiments
Format: cell-based
Details: Homo sapiens, Hs 695T
Description: Cell lines and pharmacological characterization. Cell line HS695T (CLS) was cultured in DMEM (4 mM L-glutamine, 4.5 g/l glucose, Invitrogen) with 10% fetal bovine serum (Biochrom) and maintained at 37° C. under 5% CO2 atmosphere. The cells were dispensed as triplicates into a 6-well-plate-formate with a concentration of 5×10^5 per well 24 hours prior to drug treatment. Afterwards medium was replaced with a final drug concentration range of 2.5 nM to 8 μM by 3.16-fold dilutions (eight-dose response) of Sunitinib and PI103 as single treatment HS695T for 72 and 96 hours. […] Compounds (Selleckchem) were diluted in DMSO. The final DMSO concentration for the experiments was under 0.4%. Cell viability was determined via Trypan blue staining in duplicates for each well. 100 μl of cells were incubated with an equal volume of 0.5% Trypan blue for 2-5 minutes (in 0.9% sodium chloride) and counted using a Neubauer haemocytometer chamber and a light microscope. The means of independent cell counts were taken for analysis.
Predicted growth inhibition curves were compared to measured growth inhibition curves as previously described.

| SMILES | IC50 (HS695T, read-out: sensitivity classification according to IC50 determined by cell culture experiments) | IC50 (HS695T, single treatment, 2.5 nM to 8 μM, 72 and 96 hours, Trypan blue cell counts, read-out: IC50 values determined by cell culture experiments) | IC50 (read-out: IC50 values determined by cell culture experiments) | IC50 (read-out: sensitivity classification according to IC50 determined by cell culture experiments) |
| --- | --- | --- | --- | --- |
| CCN(CC)CCNC(=O)c1c(C)[nH]c(/C=C2\C(=O)Nc3ccc(F)cc32)c1C [Sunitinib] | > 2000 nM | 4700 nM |  |  |
| Oc1cccc(-c2nc(N3CCOCC3)c3oc4ncccc4c3n2)c1 [PI103] |  |  | 830 nM | < 2000 nM |

Source: patent US20160259918A1, “Computational Approach for Identifying a Combination of Two Drugs” (ALACRIS THERANOSTICS GMBH, priority 2013, published 2016)
